Experimental data reported in publication PMC9005681, “Use of AD Informer Set compounds to explore validity of novel targets in Alzheimer's disease pathology” (Alzheimer's & Dementia : Translational Research & Clinical …, 2022).
“And” between values parts separate entries of the source, which are not always exact repeats. Identical values can stand only once.

Experiments:
Experiment in all cases: PDSP GPCR panel primary binding assays at 10 μM
[1] = biological target: T1, cloned human or rodent CNS receptors, channels, and transporters (PDSP panel) (Homo sapiens, UniProt P21728); conditions: Receptor D1, primary assay, 10 μM; for Mean %: mean of Inhibition 1-4
T1 construct: expressed in transfected cells
In short: (§1)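 Each compound is first screened once at 10 μM, in quadruplicate, for radioligand displacement. Where mean displacement passes 50%, an 11-point dose-response in triplicate follows at that target, except at H3, PBR and GABAA.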

[2] = biological target: T2, cloned human or rodent CNS receptors, channels, and transporters (PDSP panel) (Homo sapiens, UniProt P20309); conditions: Receptor M3, primary assay, 10 μM; for Mean %: mean of Inhibition 1-4
T2 construct: expressed in transfected cells
In short: as §1

[3] = biological target: T3, cloned human or rodent CNS receptors, channels, and transporters (PDSP panel) (Rattus norvegicus, UniProt P16257); conditions: Receptor PBR; primary assay, 10 μM
T3 construct: expressed in transfected cells
In short: as §1

[4] = biological target: T4, cloned human or rodent CNS receptors, channels, and transporters (PDSP panel) (Homo sapiens, UniProt P28221); conditions: Receptor 5-HT1D, primary assay, 10 μM; for Mean %: mean of Inhibition 1-4
T4 construct: expressed in transfected cells
In short: as §1

[5] = biological target: T5, cloned human or rodent CNS receptors, channels, and transporters (PDSP panel) (Homo sapiens, UniProt P08912); conditions: Receptor M5, primary assay, 10 μM; for Mean %: mean of Inhibition 1-4
T5 construct: expressed in transfected cells
T5 sequence (P08912 1-532): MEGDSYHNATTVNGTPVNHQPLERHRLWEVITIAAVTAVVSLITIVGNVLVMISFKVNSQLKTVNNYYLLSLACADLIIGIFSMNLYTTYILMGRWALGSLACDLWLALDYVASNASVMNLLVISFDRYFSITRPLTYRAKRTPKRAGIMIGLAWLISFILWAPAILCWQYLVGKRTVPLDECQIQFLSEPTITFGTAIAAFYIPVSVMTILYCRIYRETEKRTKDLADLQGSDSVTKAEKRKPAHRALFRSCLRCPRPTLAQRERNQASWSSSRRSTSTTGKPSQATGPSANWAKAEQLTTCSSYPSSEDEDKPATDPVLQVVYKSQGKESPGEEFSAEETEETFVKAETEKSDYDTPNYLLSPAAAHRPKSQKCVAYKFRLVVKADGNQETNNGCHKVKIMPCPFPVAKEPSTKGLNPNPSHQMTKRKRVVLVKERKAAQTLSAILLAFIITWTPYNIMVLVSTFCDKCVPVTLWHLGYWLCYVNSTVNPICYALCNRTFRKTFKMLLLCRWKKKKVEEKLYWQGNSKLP
In short: as §1

[6] = biological target: T6, cloned human or rodent CNS receptors, channels, and transporters (PDSP panel) (Homo sapiens, UniProt P35368); conditions: Receptor Alpha1B, primary assay, 10 μM; for Mean %: mean of Inhibition 1-4
T6 construct: expressed in transfected cells
T6 sequence (P35368 1-520): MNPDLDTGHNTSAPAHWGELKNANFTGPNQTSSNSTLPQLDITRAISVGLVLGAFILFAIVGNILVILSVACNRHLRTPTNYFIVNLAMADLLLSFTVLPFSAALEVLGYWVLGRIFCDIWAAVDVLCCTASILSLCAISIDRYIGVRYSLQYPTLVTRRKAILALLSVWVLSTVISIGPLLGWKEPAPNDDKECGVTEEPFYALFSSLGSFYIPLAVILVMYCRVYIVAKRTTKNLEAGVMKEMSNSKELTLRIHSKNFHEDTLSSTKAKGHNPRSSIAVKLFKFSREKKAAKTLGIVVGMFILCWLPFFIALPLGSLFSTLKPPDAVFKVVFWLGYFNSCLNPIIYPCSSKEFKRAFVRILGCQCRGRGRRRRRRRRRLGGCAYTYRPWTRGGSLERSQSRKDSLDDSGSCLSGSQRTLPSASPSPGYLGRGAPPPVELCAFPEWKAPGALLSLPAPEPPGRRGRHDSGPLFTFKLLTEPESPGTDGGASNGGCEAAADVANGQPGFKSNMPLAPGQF
In short: as §1

[7] = biological target: T7, cloned human or rodent CNS receptors, channels, and transporters (PDSP panel) (Homo sapiens, UniProt P18089); conditions: Receptor Alpha2B, primary assay, 10 μM; for Mean %: mean of Inhibition 1-4
T7 construct: expressed in transfected cells
T7 sequence (P18089 1-450): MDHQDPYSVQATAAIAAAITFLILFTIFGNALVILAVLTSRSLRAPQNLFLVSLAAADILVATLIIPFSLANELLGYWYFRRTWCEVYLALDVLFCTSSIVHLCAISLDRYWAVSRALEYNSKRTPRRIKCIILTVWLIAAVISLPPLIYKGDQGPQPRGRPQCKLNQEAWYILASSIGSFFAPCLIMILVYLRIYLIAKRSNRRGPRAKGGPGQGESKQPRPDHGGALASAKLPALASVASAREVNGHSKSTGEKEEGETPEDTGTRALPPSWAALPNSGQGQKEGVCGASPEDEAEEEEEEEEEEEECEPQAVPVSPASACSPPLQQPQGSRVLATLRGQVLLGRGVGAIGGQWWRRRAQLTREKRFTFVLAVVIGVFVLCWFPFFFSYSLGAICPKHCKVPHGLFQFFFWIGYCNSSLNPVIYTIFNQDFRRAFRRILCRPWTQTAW
In short: as §1

T1 sequence (P21728 whole entry): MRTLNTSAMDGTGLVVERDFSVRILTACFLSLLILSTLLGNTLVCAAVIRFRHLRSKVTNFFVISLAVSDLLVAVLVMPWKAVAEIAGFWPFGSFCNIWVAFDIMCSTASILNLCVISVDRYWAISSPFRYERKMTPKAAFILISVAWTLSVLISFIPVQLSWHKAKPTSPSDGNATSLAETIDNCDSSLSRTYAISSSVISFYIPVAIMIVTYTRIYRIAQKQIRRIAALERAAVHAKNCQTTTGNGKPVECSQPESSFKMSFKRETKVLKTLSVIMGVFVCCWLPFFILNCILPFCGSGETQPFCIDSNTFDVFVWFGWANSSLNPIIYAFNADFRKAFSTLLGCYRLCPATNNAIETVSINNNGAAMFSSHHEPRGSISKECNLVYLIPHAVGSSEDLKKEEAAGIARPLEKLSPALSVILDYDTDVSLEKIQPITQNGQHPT
T4 sequence (P28221 whole entry): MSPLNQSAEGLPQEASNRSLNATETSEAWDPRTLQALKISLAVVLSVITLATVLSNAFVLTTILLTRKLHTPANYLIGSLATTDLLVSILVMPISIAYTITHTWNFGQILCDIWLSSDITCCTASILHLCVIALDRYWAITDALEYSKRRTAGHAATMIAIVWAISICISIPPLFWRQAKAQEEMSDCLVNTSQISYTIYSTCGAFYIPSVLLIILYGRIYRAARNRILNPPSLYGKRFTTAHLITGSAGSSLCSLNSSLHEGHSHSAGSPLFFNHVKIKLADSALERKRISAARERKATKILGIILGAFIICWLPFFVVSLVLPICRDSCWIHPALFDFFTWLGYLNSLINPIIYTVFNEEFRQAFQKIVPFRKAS
T2 sequence (P20309 whole entry): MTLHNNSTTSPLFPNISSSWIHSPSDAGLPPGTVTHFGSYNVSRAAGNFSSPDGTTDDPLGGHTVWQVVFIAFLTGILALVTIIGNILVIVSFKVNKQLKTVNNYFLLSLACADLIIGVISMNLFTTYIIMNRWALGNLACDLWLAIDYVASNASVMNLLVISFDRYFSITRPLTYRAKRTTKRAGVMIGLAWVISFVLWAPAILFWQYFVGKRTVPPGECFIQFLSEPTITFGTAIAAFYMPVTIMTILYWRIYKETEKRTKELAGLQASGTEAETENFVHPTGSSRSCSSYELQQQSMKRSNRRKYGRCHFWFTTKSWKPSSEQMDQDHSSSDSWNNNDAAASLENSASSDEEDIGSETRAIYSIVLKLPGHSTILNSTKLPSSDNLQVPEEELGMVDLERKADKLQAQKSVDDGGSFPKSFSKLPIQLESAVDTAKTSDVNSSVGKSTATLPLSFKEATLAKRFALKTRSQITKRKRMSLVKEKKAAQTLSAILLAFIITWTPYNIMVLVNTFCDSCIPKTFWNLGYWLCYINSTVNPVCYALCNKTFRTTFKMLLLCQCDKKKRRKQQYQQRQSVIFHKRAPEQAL

SMILES	Inhibition 1 [1]	Inhibition 2 [1]	Inhibition 3 [1]	Inhibition 4 [1]	Mean % [1]	Inhibition 1 [2]	Inhibition 2 [2]	Inhibition 3 [2]	Inhibition 4 [2]	Mean % [2]	Inhibition 1 [4]	Inhibition 2 [4]	Inhibition 3 [4]	Inhibition 4 [4]	Mean % [4]	Inhibition 1 [5]	Inhibition 2 [5]	Inhibition 3 [5]	Inhibition 4 [5]	Mean % [5]	also measured
CCCCNc1ncc2c(-c3ccc(CN4CCN(C)CC4)cc3)cn([C@H]3CC[C@H](O)CC3)c2n1 [UNC2025C, UNC2025]	18.86%	-8.82%	17.73%	11.41%	9.8%	-7.29%	-5.9%	-6.87%	2.81%	-4.31%	51.95%	44.87%	26.55%	48.2%	42.89%	16.16%	21.19%	19.69%	10.93%	16.99%	Inhibition 4 [3]: 12.81% and 23.25%; Inhibition 1 [6]: 15.21%; Inhibition 2 [6]: -0.72%; Inhibition 3 [6]: -5.53%; Inhibition 4 [6]: -1.63%; Mean % [6]: 1.83%; Inhibition 1 [7]: 27.09%; Inhibition 2 [7]: 28.85%; Inhibition 3 [7]: -0.55%; Inhibition 4 [7]: 53.34%; Mean % [7]: 27.18%
O=c1oc2ccccc2cc1-c1cn2cc(Cc3ccc(F)cc3)sc2n1 [UNC10302680A, iMDK]	5.91%	9.31%	-0.89%	-9.8%	1.13%	9.1%	60.54%	10.14%	13.11%	23.22%	-3.85%	-18.84%	15.72%	-8.43%	-3.85%	-0.74%	-17.55%	-6.68%	-10.7%	-8.92%	Inhibition 1 [6]: 2.49%; Inhibition 2 [6]: 0.66%; Inhibition 3 [6]: -2.09%; Inhibition 4 [6]: -5.18%; Mean % [6]: -1.03%; Inhibition 1 [7]: 0.83%; Inhibition 2 [7]: 1.88%; Inhibition 3 [7]: -7.31%; Inhibition 4 [7]: 7.87%; Mean % [7]: 0.82%
